We go through 22 compounds from ChEMBL document CHEMBL6134767, “Advances in antibacterial agents for Mycobacterium fortuitum” (2025).

Common to all, as to assay type: functional
The subject of assay [1] is Mycolicibacterium fortuitum. Description: Antibacterial activity against Mycobacterium fortuitum ATCC 6841 assessed as reduction in bacterial growth by micro-dilution method. In general terms: Dilution methods test growth across graded concentrations, often in twofold steps.
In assay [2] the test system is Mycolicibacterium fortuitum. Description: Antimycobacterial activity against Mycobacterium fortuitum PCM 672 assessed as reduction in microbial growth incubated for 72 hrs by resazurin dye based broth microdilution method.
Assay [3] has as its system Mycolicibacterium fortuitum. Description: Antibacterial activity against Mycobacterium fortuitum assessed as reduction in bacterial growth.
Assay [4] has as its system Mycolicibacterium fortuitum. Description: Antimycobacterial activity against Mycobacterium fortuitum ATCC 6841 assessed as reduction in microbial growth.
Assay [5] deals with Mycolicibacterium fortuitum. Description: Antimycobacterial activity against Mycobacterium fortuitum ATCC 19542 assessed as bacterial growth inhibition incubated for 72 hrs by resazurin dye based broth microdilution method.
Assay [6] deals with Mycolicibacterium fortuitum. Description: Antibacterial activity against Mycobacterium fortuitum ATCC 6841 assessed as bacterial growth inhibition incubated for 4 days by CLSI protocol based broth micro-dilution method. As to conditions: ATCC 6841, 96 h, time 4 day.
For assay [7], the system named is Mycolicibacterium fortuitum. Description: Antibacterial activity against Mycobacterium fortuitum ATCC 49404 assessed as bacterial growth inhibition incubated for 72 hrs by CLSI protocol based micro-dilution method.
Assay [8] relates to Mycolicibacterium fortuitum. Description: Antibacterial activity against Mycobacterium fortuitum ATCC 6841 assessed as bacterial growth inhibition incubated for 72 hrs by CLSI protocol based micro-dilution method.

SMILES strings stand for the structures. ≈ marks a conversion by molar mass, not a printed value. A value given as a limit tells only on which side of the number the result lay.

On to `C=C1[C@H]2CC[C@@H]3[C@H]2C(C)(C)CCC[C@]13C` [LONGIFORENE], for which, in assay [1], the MIC was above 0.63 µM. Regarding `Cc1noc(N)c1C(=O)N/N=C/c1ccc([N+](=O)[O-])cc1`, in assay [2], the MIC stood at 51.1 µM. `CC(C)/C(=C/CN(C)C)CC[C@@H](C)[C@H]1CC[C@H]2C3=CC[C@H]4C[C@@H](N(C)C)CC[C@]4(C)[C@H]3CC[C@]12C`: in assay [3], the MIC was 67.2 µM (≈ 32.5 µg/mL).

Consider `Cc1noc(N)c1C(=O)N/N=C/c1ccc(Cl)cc1Cl`, for which the MIC in assay [2] came out at 55.3 µM. Same read-out and setting: with `Cc1noc(N)c1C(=O)N/N=C/c1ccc(Cl)c(Cl)c1` the figure was 0.21 µM.

For `O=c1cc(-c2ccc(O)c(O)c2)oc2cc(O)cc(O)c12` [LUTEOLIN], in assay [4], the MIC is 0.12 µM. Regarding `C=C[C@@](C)(O)CC/C=C(/C)CCC=C(C)C` [NEROLIDIOL], the MIC in assay [1] came to 44.5 µM (≈ 9.9 µg/mL).

With `Cc1noc(N)c1C(=O)N/N=C/c1ccncc1`, in assay [2], the MIC is 0.14 µM. With `CC(NC(=O)C1=CC(c2cc(Br)ccc2F)N2N=CNC2=N1)c1ccccc1` (stereo not drawn), the MIC in assay [5] was found to be 2.26 µM (≈ 1 µg/mL). Turning to `COc1ccc(/C=N/NC(=O)c2c(C)noc2N)cc1`, the MIC in assay [2] came to 0.24 µM. Take `C=C1[C@@H](C)CC[C@@]2(C)[C@H]1CC=C(C=O)[C@]2(O)C=O`: the MIC in assay [1] is 64.4 µM (≈ 16 µg/mL). Turning to `Cc1noc(N)c1C(=O)N/N=C/c1ccc(C(F)(F)F)cc1`, the MIC in assay [2] came to 0.21 µM. For the compound `CC1(C)CCC(Cc2cc(O)c(-c3ccccc3)c(=O)[nH]2)CC1`, the MIC in assay [6] is 0.13 µM (≈ 0.0405 µg/mL). Take `C#CCNC(=O)C1=CC(c2cc(Br)ccc2F)N2N=CNC2=N1` (stereo not drawn): the MIC in assay [5] was 2.65 µM (≈ 0.997 µg/mL). Turning to `C=C1C[C@@]23CC[C@H]4[C@@](C)(CCC[C@@]4(C)C=O)[C@@H]2CC[C@@H]1C3`, the MIC in assay [1] turned out to be 51.6 µM (≈ 14.8 µg/mL). Turning to `NCC[C@H](O)C(=O)N[C@@H]1C[C@H](N)[C@@H](O[C@H]2O[C@H](CN)[C@@H](O)[C@H](O)[C@H]2O)[C@H](O)[C@H]1O[C@H]1O[C@H](CO)[C@@H](O)[C@H](N)[C@H]1O` [AMIKACIN], the MIC came to 5.33 µM (≈ 3.12 µg/mL) in assay [7] and 3.41 µM (≈ 2 µg/mL) in assay [8].

Turning to `CC(C)=CCC/C(C)=C/CNCCNC1C2CC3CC(C2)CC1C3` (stereo not drawn) [SQ109], the MIC in assay [3] is 3.02 µM (≈ 0.998 µg/mL).

Regarding `CCN(C(=O)C1=CC(c2cc(Br)ccc2F)N2N=CNC2=N1)c1ccccc1` (stereo not drawn), the MIC in assay [5] was determined as 2.26 µM (≈ 1 µg/mL). As to `O=c1cc(-c2ccc(O)cc2)oc2c([C@@H]3O[C@H](CO)[C@@H](O)[C@H](O)[C@H]3O)c(O)cc(O)c12`, the MIC in assay [4] came to 69.4 µM. With `Cc1cc(O)c([C@]2(C)CC[C@@H]3C[C@@]32C)cc1Br`, in assay [1], the MIC was found to be 42.3 µM (≈ 12.5 µg/mL). As for `C[C@]12CC[C@@H]3c4ccc(OCCCCCCC[n+]5ccccc5)cc4CC[C@H]3[C@@H]1CCC2=O`, the MIC in assay [3] stood at 3.81 µM. Regarding `CC(C)c1c(O)ccc2c1CC[C@H]1C(C)(C)CCC[C@]21C` [TOTAROL], the minimal inhibitory concentration (MIC) in assay [1] was determined as 14 µM (≈ 4.01 µg/mL).

By MIC is commonly meant the lowest concentration that inhibits growth of the organism.
